Test results as given in PMC4501006, “Preliminary Characterization and In Vivo Studies of Structurally Identical ^18F- and ^125I-Labeled Benzyloxybenzenes for PET/SPECT Imaging of β-Amyloid Plaques” (Scientific Reports, 2015).
Values joined by “and” are separate entries in the source; they are usually repeats but may differ in a detail not shown here. Equal values may be shown once.

Legend:
Aβ42 aggregates = Aβ42 aggregates (Homo sapiens, UniProt P05067); assay: Competition binding assay using [125I]4 as radio-ligand; conditions: inhibition of [125I]4 binding to Aβ42 aggregates
Aβ42 aggregates, sequence (P05067 672-713 limits assumed): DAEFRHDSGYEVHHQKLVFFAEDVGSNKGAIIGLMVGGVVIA
Excerpt: The actual binding affinities agreed well with values predicted by the CoMFA and CoMSIA models, with pKi values deviating by less than 0.5 log unit. This satisfactory result strongly validated the reliability of the established 3D-QSAR models. This ability to accurately predict the binding activities of new benzyloxybenzene derivatives will be of great help for future efforts to design new potent Aβ imaging agents.

[1] = Partition coefficient determination (log D); format: physicochemical
Protocol: An ideal Aβ imaging probe would combine a high binding affinity to Aβ plaques and excellent pharmacokinetics with high initial brain uptake and rapid washout from normal brain regions. Thus, the partition coefficients of these four radiolabeled ligands were determined to estimate their ability to penetrate the BBB.

[2] = In vivo biodistribution in normal ICR mice; conditions: i.v.
Protocol: Histograms of brain and intestine uptake were presented in Fig. 6 for comparison, while detailed data concerning the in vivo biodistribution in normal ICR mice were collected in Table S3 in Supplementary information. […] [^125I]7a and [^125I]12a were rapidly cleared from the normal brain, with only small amounts of radioactivity remaining at 60 min post-injection (0.55% ID/g for [^125I]7a and 0.37% ID/g for [^125I]12a). […] In addition, no significant deiodination was observed (less than 0.5% ID in the thyroid at 60 min).
As the specific activity of ^18F-labeled ligands (about 60 GBq/μmol) was slightly lower than that of corresponding no-carrier-added ^125I-labeled ligands (81 GBq/μmol), the impact of specific activity on pharmacokinetics was studied. In vivo biodistribution of radioactivity after injection of carrier-added [^125I]7a with equal specific activity to corresponding [^18F]7a (60 GBq/μmol) was conducted in normal ICR mice through the same procedure.
A structural model of an Aβ fiber (PDB ID: 2LMO) derived from solid state NMR was downloaded from the RCSB Protein Data Bank (www.rcsb.org/pdb). Geometric optimization was performed using Gaussian 09 at the B3LYP/6–31 G and 3-21G levels in the water phase. Molecular docking was performed using AutoDock4.0, and the docking results were graphed with VMD 1.9.1 software. SYBYL-X 1.1 software was used to predict the binding affinities with previously constructed 3D-QSAR models. All reagents for chemical synthesis were used as purchased without further purification. [^125I]NaI was purchased from PerkinElmer and ^18F^– was kindly provided by the Chinese PLA General Hospital. ^1H and ^13C NMR spectra were recorded on a Bruker Avance III NMR spectrometer (400 MHz for ^1H; 101 MHz for ^13C) in CDCl3 or DMSO-d6 solutions at room temperature. Mass spectra were acquired with a GCT CA127 Micronass UK instrument. X-ray crystallographic data of compound 12a were collected on a Bruker Smart APEX II diffractometer (Bruker Co., Germany) and deposited at the Cambridge Crystallographic Data Centre as supplementary publication (no. CCDC 1063679). HPLC analysis was performed on a Shimadzu SCL-20 AVP equipped with a Bioscan Flow Count 3200 NaI/PMT γ-radiation scintillation detector and a SPD-20A UV detector, λ = 254 nm. A Venusil MP C18 reverse phase column (Agela Technologies, 5 μm, 4.6 × 250 mm) was used for separations and purity determinations with a binary gradient system (acetonitrile: water = 80%: 20%) at a 1.0 mL/min flow rate. Fluorescent observation was performed on the Axio Observer Z1 inverted fluorescence microscope (Zeiss, Germany) equipped with a DAPI filter set (excitation, 405 nm). Post-mortem brain sections from an autopsy-confirmed AD subject and a control subject were acquired from the Chinese Brain Bank. Transgenic mice (APPswe/PSEN1, male) and wild-type mice (C57BL6, male) were purchased from the Institute of Laboratory Animal Science, Chinese Academy of Medical Sciences. Normal ICR mice (20–22 g, male) were used for in vivo biodistribution, dynamic PET/CT and SPECT/CT scans, and biostability experiments. All experiments on mice were performed in accordance with the guidelines approved by the animal care committee of Beijing Normal University and Xiamen University.

[3] = In vivo metabolism (biostability), HPLC analysis of organ samples; conditions: ICR mice, i.v.
Protocol: All four radioactive ligands degraded to two corresponding polar radioactive products with shorter retention times. […] The good in vivo biostability of these compounds enhances their potential for SPECT mapping of the brain. […] In the plasma, all four ligands were rapidly converted to polar metabolites, leaving only approximately 10% of the parent tracers at 60 min. […] In contrast, the breakdown of [^125I]7a and [^125I]12a was so rapid that almost negligible amounts of parent tracers remained at 30 min (8.8% and 6.3%, respectively). The polar and hydrophilic metabolites metabolized by the liver could be absorbed by the intestine and excreted through the urine, in accordance with the biodistribution results. The rapid metabolism in the liver may be another reason for the faster clearance of these compounds from the normal brain. For structurally identical molecules labeled with radioactive isotopes at different positions, the in vivo metabolic pathways were expected to be the same. However, as only radioactive products can be detected with PET/SPECT scanners, different pharmacokinetics of the radioactive components could lead to different imaging results. […] The dual radiolabeled identical benzyloxybenzene derivatives in this study were expected to undergo the same metabolic reactions, generating different radioactive metabolites. Differences in the biochemical characteristics of the radiometabolites including absorption, distribution, metabolism and excretion are responsible for the discrepancy in the pharmacokinetics of the radioactivity.

Aβ plaques = Aβ plaques (Homo sapiens, UniProt P05067); assay: In vitro autoradiography on AD human brain sections; format: binding
Aβ plaques, sequence (P05067 672-711 limits assumed): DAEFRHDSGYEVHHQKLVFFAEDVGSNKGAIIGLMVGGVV
Excerpt: Figure 5 In vitro autoradiography of [^125I]7a (a–d), [^18F]7a (e–h), [^125I]12a (i–l) and [^18F]12a (m–p).

FCCOc1ccc(OCc2ccc(I)cc2)cc1 [7a]
Ki (Aβ42 aggregates): 19.5 nM

FCCOc1ccc(COc2ccc(I)cc2)cc1 [12a]
Ki (Aβ42 aggregates): 23.9 nM

FCCOc1ccc(COc2ccc([125I])cc2)cc1 [[^125I]12a]
logD [1]: 3.62 ± 0.15 | brain2 min/brain60 min ratio [2]: 14.2 | Biodistribution of radioactivity, blood ([2]; 2 min): 4.96 ± 0.35 % injected dose per gram | Biodistribution of radioactivity, brain ([2]; 2 min): > 5 % injected dose per gram and 5.27 % injected dose per gram | Biodistribution of radioactivity, heart ([2]; 2 min): 6.61 ± 1.42 % injected dose per gram | Biodistribution of radioactivity, intestine ([2]; 2 min): 4.81 ± 0.97 % injected dose per organ | Biodistribution of radioactivity, kidney ([2]; 2 min): 9.16 ± 0.59 % injected dose per gram | Biodistribution of radioactivity, liver ([2]; 2 min): 18.12 ± 2.34 % injected dose per gram | Biodistribution of radioactivity, lung ([2]; 2 min): 10.30 ± 2.16 % injected dose per gram | Biodistribution of radioactivity, muscle ([2]; 2 min): 3.47 ± 0.45 % injected dose per gram | Biodistribution of radioactivity, pancreas ([2]; 2 min): 6.45 ± 0.56 % injected dose per gram | Biodistribution of radioactivity, spleen ([2]; 2 min): 2.85 ± 0.30 % injected dose per gram | Biodistribution of radioactivity, stomach ([2]; 2 min): 1.30 ± 0.14 % injected dose per organ | Biodistribution of radioactivity, thyroid ([2]; 2 min): 0.13 ± 0.02 % injected dose per organ | Biodistribution of radioactivity, brain ([2]; 2 min, listed as [125I]12a): 5.27 ± 0.98 % injected dose per gram | Biodistribution of radioactivity, blood ([2]; 10 min): 3.88 ± 0.79 % injected dose per gram | Biodistribution of radioactivity, brain ([2]; 10 min): 2.28 ± 0.27 % injected dose per gram | Biodistribution of radioactivity, heart ([2]; 10 min): 2.12 ± 0.16 % injected dose per gram | Biodistribution of radioactivity, intestine ([2]; 10 min): 10.68 ± 2.60 % injected dose per organ | Biodistribution of radioactivity, kidney ([2]; 10 min): 7.61 ± 1.23 % injected dose per gram | Biodistribution of radioactivity, liver ([2]; 10 min): 12.07 ± 1.06 % injected dose per gram | Biodistribution of radioactivity, lung ([2]; 10 min): 4.16 ± 0.26 % injected dose per gram | Biodistribution of radioactivity, muscle ([2]; 10 min): 1.31 ± 0.12 % injected dose per gram | Biodistribution of radioactivity, pancreas ([2]; 10 min): 2.44 ± 0.28 % injected dose per gram | Biodistribution of radioactivity, spleen ([2]; 10 min): 1.29 ± 0.06 % injected dose per gram | Biodistribution of radioactivity, stomach ([2]; 10 min): 1.34 ± 0.16 % injected dose per organ | Biodistribution of radioactivity, thyroid ([2]; 10 min): 0.13 ± 0.01 % injected dose per organ | Biodistribution of radioactivity, blood ([2]; 30 min): 3.89 ± 0.53 % injected dose per gram | Biodistribution of radioactivity, brain ([2]; 30 min): 0.81 ± 0.06 % injected dose per gram | Biodistribution of radioactivity, heart ([2]; 30 min): 1.67 ± 0.09 % injected dose per gram | Biodistribution of radioactivity, intestine ([2]; 30 min): 16.61 ± 3.88 % injected dose per organ | Biodistribution of radioactivity, kidney ([2]; 30 min): 7.44 ± 0.90 % injected dose per gram | Biodistribution of radioactivity, liver ([2]; 30 min): 8.68 ± 1.02 % injected dose per gram | Biodistribution of radioactivity, lung ([2]; 30 min): 3.56 ± 0.38 % injected dose per gram | Biodistribution of radioactivity, muscle ([2]; 30 min): 0.99 ± 0.17 % injected dose per gram | Biodistribution of radioactivity, pancreas ([2]; 30 min): 1.75 ± 0.10 % injected dose per gram | Biodistribution of radioactivity, spleen ([2]; 30 min): 1.03 ± 0.10 % injected dose per gram | Biodistribution of radioactivity, stomach ([2]; 30 min): 2.02 ± 0.49 % injected dose per organ | Biodistribution of radioactivity, thyroid ([2]; 30 min): 0.19 ± 0.04 % injected dose per organ | Biodistribution of radioactivity, blood ([2]; 60 min): 3.01 ± 1.07 % injected dose per gram | Biodistribution of radioactivity, brain ([2]; 60 min): 0.37 % injected dose per gram | Biodistribution of radioactivity, heart ([2]; 60 min): 1.17 ± 0.45 % injected dose per gram | Biodistribution of radioactivity, intestine ([2]; 60 min): 18.84 ± 8.75 % injected dose per organ | Biodistribution of radioactivity, kidney ([2]; 60 min): 6.09 ± 2.17 % injected dose per gram | Biodistribution of radioactivity, liver ([2]; 60 min): 4.64 ± 0.77 % injected dose per gram | Biodistribution of radioactivity, lung ([2]; 60 min): 3.11 ± 1.02 % injected dose per gram | Biodistribution of radioactivity, muscle ([2]; 60 min): 1.20 ± 0.26 % injected dose per gram | Biodistribution of radioactivity, pancreas ([2]; 60 min): 1.37 ± 0.41 % injected dose per gram | Biodistribution of radioactivity, spleen ([2]; 60 min): 0.84 ± 0.31 % injected dose per gram | Biodistribution of radioactivity, stomach ([2]; 60 min): 2.27 ± 0.40 % injected dose per organ | Biodistribution of radioactivity, thyroid ([2]; 60 min): 0.34 ± 0.10 % injected dose per organ | Biodistribution of radioactivity, brain ([2]; 60 min, listed as [125I]12a): 0.37 ± 0.06 % injected dose per gram | Percentage of Parent tracer, Brain ([3]; post-injection time 2 min): 92.1% | Percentage of Parent tracer, Feces ([3]; post-injection time 2 min): 0.0% | Percentage of Parent tracer, Liver ([3]; post-injection time 2 min): 49.1% | Percentage of Parent tracer, Plasma ([3]; post-injection time 2 min): 88.4% | Percentage of Parent tracer, Urine ([3]; post-injection time 2 min): 0.0% | Percentage of Parent tracer, Brain ([3]; post-injection time 10 min): 82.1% | Percentage of Parent tracer, Feces ([3]; post-injection time 10 min): 0.0% | Percentage of Parent tracer, Liver ([3]; post-injection time 10 min): 21.5% | Percentage of Parent tracer, Plasma ([3]; post-injection time 10 min): 29.6% | Percentage of Parent tracer, Urine ([3]; post-injection time 10 min): 0.0% | Percentage of Parent tracer, Brain ([3]; post-injection time 30 min): 78.3% | Percentage of Parent tracer, Feces ([3]; post-injection time 30 min): 0.0% | Percentage of Parent tracer, Liver ([3]; post-injection time 30 min): 6.3% | Percentage of Parent tracer, Plasma ([3]; post-injection time 30 min): 26.3% | Percentage of Parent tracer, Urine ([3]; post-injection time 30 min): 0.0% | Percentage of Parent tracer, Brain ([3]; post-injection time 60 min): 68.6% | Percentage of Parent tracer, Feces ([3]; post-injection time 60 min): 0.0% | Percentage of Parent tracer, Liver ([3]; post-injection time 60 min): 3.8% | Percentage of Parent tracer, Plasma ([3]; post-injection time 60 min): 4.68% | Percentage of Parent tracer, Urine ([3]; post-injection time 60 min): 0.0% | in vitro autoradiography, plaque labeling (Aβ plaques): specifically label Aβ deposits
